Structures are written as SMILES.

One assay deals with T1, NLRP3 inflammasome (Homo sapiens, UniProt Q96P20).
T1 construct: endogenous in cells; host or cells: THP-1 monocytic cells
T1 sequence (Q96P20 whole entry): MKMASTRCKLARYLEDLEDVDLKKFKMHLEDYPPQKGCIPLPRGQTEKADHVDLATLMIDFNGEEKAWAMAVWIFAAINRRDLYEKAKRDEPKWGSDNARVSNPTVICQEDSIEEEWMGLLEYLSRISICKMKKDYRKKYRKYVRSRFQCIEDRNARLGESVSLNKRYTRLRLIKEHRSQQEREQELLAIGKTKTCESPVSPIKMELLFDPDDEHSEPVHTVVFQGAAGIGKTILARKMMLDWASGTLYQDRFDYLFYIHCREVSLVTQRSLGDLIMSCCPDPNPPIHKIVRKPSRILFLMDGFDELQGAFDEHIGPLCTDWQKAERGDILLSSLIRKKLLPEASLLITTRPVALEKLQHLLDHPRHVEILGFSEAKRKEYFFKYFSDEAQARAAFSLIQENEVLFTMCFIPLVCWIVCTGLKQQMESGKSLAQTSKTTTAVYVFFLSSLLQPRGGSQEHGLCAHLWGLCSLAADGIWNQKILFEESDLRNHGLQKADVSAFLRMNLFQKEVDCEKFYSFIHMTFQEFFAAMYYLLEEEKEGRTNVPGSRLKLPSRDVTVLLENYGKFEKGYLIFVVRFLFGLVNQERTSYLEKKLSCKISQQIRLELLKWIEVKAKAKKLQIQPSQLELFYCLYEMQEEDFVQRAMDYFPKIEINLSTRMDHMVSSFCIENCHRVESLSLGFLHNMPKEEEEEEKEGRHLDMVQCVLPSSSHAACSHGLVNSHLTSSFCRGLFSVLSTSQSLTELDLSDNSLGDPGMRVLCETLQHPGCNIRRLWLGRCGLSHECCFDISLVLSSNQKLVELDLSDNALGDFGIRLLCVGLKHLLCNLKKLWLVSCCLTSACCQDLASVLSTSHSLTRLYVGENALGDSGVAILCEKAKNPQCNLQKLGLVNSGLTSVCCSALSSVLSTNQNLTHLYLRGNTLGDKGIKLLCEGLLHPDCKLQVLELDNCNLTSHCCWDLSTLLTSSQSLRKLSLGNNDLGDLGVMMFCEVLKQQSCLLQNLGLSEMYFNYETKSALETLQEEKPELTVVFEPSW
The experiment in a line: IL-1β secretion assay (NLRP3 IC50) in LPS-primed, nigericin-activated THP-1 cells, HTRF. It is filed as cell-based. Particulars: monocytic THP-1 cells; LPS 10 ng/mL 3 h priming, then compound + nigericin 10 μM 2 h; relative IC50, 10 concentrations, geometric mean. The procedure, abridged: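 IL-1β in supernatant read by HTRF after 2 h co-incubation of compound (0.1% DMSO, 10 concentrations, 1:3 series) with nigericin at 10 μM final, following 3 h LPS (10 ng/mL) priming of THP-1 monocytes at 37° C. Inhibition normalised to unactivated and no-compound controls; geometric-mean relative IC50 from 4-parameter logistic model.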
Regarding `NC[C@H]1CCN(c2ccc(-c3c(O)cc(Cl)cc3Cl)nn2)C1` [Example 25, 2-[6-[(3R)-3-(aminomethyl)pyrrolidin-1-yl]pyridazin-3-yl]-3,5-dichloro-phenol], the half-maximal inhibitory concentration (IC50) was found to be 109 nM. As for `Cc1cc(C(F)(F)F)cc(O)c1-c1ccc(N2CCO[C@H]3CCN(C)C[C@H]32)nn1` (single isomer, unassigned) [Example 261], the half-maximal inhibitory concentration (IC50) is 1 nM. Consider `Oc1cc(Cl)cc(Cl)c1-c1ccc(N2CC3(COC3)C2)nn1` [Example 64, 3,5-dichloro-2-[6-(2-oxa-6-azaspiro[3.3]heptan-6-yl)pyridazin-3-yl]phenol], for which the half-inhibitory concentration (IC50) worked out at 222 nM.

As for `Cc1cc(C(F)(F)F)cc(O)c1-c1ccc(N2CC[C@@H](O)CC2=O)nn1` [Example 316, (4R)-4-hydroxy-1-[6-[2-hydroxy-6-methyl-4-(trifluoromethyl)phenyl]pyridazin-3-yl]piperidin-2-one], the 50% inhibitory concentration (IC50) was 287 nM. For `Cc1cc(N2CC[C@H]3CCN(C)C[C@H]32)nnc1-c1ccc(Cl)cc1O` (single isomer, unassigned) [Example 469], the concentration for half-maximal inhibition (IC50) worked out at 1 nM.

`Cc1cc(C)c(-c2ccc(N3C[C@H](O)CO3)nn2)c(O)c1` [Example 179, (4S)-2-[6-(2-hydroxy-4,6-dimethyl-phenyl)pyridazin-3-yl]isoxazolidin-4-ol]: the IC50 is 897 nM. In the case of `CC(=O)N1CC[C@H]2CCN(c3cc(C)c(-c4ccc(C)cc4O)nn3)[C@H]2C1` [Example 457, 1-[(3aR,7aR)-1-[6-(2-hydroxy-4-methyl-phenyl)-5-methyl-pyridazin-3-yl]-3,3a,4,5,7,7a-hexahydro-2H-pyrrolo[2,3-c]pyridin-6-yl]ethenone], the IC50 worked out at 432 nM. For `CCC(=O)C1CN(c2ccc(-c3c(C)cc(C)cc3O)nn2)CCO1` (single isomer, unassigned) [Example 156], the IC50 stood at 1060 nM. Same read-out and setting: with `CCN1CCOC2(COCCN(c3ccc(-c4c(C)cc(C)cc4O)nn3)C2)C1` (stereo not drawn) [Example 317, 2-[6-(4-ethyl-1,11-dioxa-4,8-diazaspiro[5.6]dodecan-8-yl)pyridazin-3-yl]-3,5-dimethyl-phenol] the figure was 3000 nM; with `Cc1cc(C(F)(F)F)cc(O)c1-c1ccc(N2CC[C@H]3[C@@H]2CCN3C)nn1` (racemic) [Example 484, 3-methyl-2-[6-[rac-(3aS,6aS)-1-methyl-2,3,3a,5,6,6a-hexahydropyrrolo[3,2-b]pyrrol-4-yl]pyridazin-3-yl]-5-(trifluoromethyl)phenol], 25 nM. Take `Cc1cc(C)c(-c2ccc(N3CCO[C@@H](C(N)=O)C3)nn2)c(O)c1` [Example 183, (2R)-4-[6-(2-hydroxy-4,6-dimethylphenyl)pyridazin-3-yl]morpholine-2-carboxamide]: the concentration for half-maximal inhibition (IC50) was 685 nM. Same read-out and setting: with `Cc1cc(N2CCO[C@H](CO)C2)nnc1-c1ccc(F)cc1O` [Example 93, 5-fluoro-2-[6-[(2S)-2-(hydroxymethyl)morpholin-4-yl]-4-methyl-pyridazin-3-yl]phenol] the figure was 879 nM; with `Cc1cc(C)c(-c2ccc(N3CCO[C@@H](C4(N)CC4)C3)nn2)c(O)c1` (single isomer, unassigned) [Example 136], 3030 nM; with `Cc1cc(C)c(-c2ccc(N3CCO[C@@H]4CNC[C@H]43)nn2)c(O)c1` (racemic) [Example 190, 2-[6-[rac-(4aR,7aR)-3,4a,5,6,7,7a-hexahydro-2H-pyrrolo[3,4-b][1,4]oxazin-4-yl]pyridazin-3-yl]-3,5-dimethylphenol], 1150 nM. Turning to `Cc1cc(Cl)cc(O)c1-c1ccc(N2CCO[C@H]3CCN(C)C[C@H]32)nn1` (single isomer, unassigned) [Example 307], the IC50 amounted to 410 nM. Regarding `CN1CC[C@H]2CCN(c3cc(C(F)F)c(-c4ccc(C(F)(F)F)cc4O)nn3)[C@H]2C1` (single isomer, unassigned) [Example 483], the half-inhibitory concentration (IC50) amounted to 1 nM. With `Cc1cc(C)c(-c2ccc(N3CCC[C@H](N(C)C)C3)nn2)c(O)c1` [Example 128, 2-[6-[(3S)-3-(dimethylamino)-1-piperidyl]pyridazin-3-yl]-3,5-dimethyl-phenol], the 50% inhibitory concentration (IC50) is 779 nM. Take `Cc1cc(C)c(-c2ccc(N3CCC4(CN(C)CCO4)C3)nn2)c(O)c1` (stereo not drawn) [Example 440, 3,5-dimethyl-2-[6-(9-methyl-6-oxa-2,9-diazaspiro[4.5]decan-2-yl)pyridazin-3-yl]phenol]: the half-inhibitory concentration (IC50) amounted to 3280 nM. `CCN1CC[C@@H]2CCN(c3cc(C(F)F)c(-c4ccc(C(F)(F)F)cc4O)nn3)[C@@H]2C1` (single isomer, unassigned) [Example 485]: the IC50 was 45 nM. `Cc1cc(C)c(-c2ccc(N3CCO[C@@H](CS)C3)nn2)c(O)c1` [Example 305, 3,5-dimethyl-2-[6-[(2R)-2-(sulfanylmethyl)morpholin-4-yl]pyridazin-3-yl]phenol]: the IC50 was found to be 2820 nM. On to `CC(=O)N1CCC[C@H]2[C@@H]1CCCN2c1ccc(-c2c(C)cc(C(F)(F)F)cc2O)nn1` [Example 463, 1-[(4aS,8aS)-5-[6-[2-hydroxy-6-methyl-4-(trifluoromethyl)phenyl]pyridazin-3-yl]-2,3,4,4a,6,7,8,8a-octahydro-1,5-naphthyridin-1-yl]ethanone], for which the IC50 was 3780 nM. `Cc1ccc(-c2nnc(N3CC[C@@H]4CCN(C)C[C@@H]43)cc2C(F)F)c(O)c1` (single isomer, unassigned) [Example 506]: the IC50 was found to be 135 nM. The same measure, in the same setting: with `CC(=O)N1CC[C@@H]2CCN(c3nnc(-c4c(C)cc(C)cc4O)cc3C(F)F)[C@@H]2C1` (single isomer, unassigned) [Example 512] the figure was 276 nM; with `Cc1cc(C(F)(F)F)cc(O)c1-c1ccc(N2CC[C@H]3CCNC[C@H]32)nn1` (single isomer, unassigned) [Example 393], 461 nM. The same measure, in the same setting: the result for `Cc1cc(C)c(-c2ccc(N3CCC4(CC3)CNC4)nn2)c(O)c1` [Example 7, 2-[6-(2,7-diazaspiro[3.5]nonan-7-yl)pyridazin-3-yl]-3,5-dimethyl-phenol; 2,2,2-trifluoroacetic acid] reads 5470 nM; that for `Cc1cc(C)c(-c2ccc(N3CCO[C@@H]4CCN(CCCF)C[C@@H]43)nn2)c(O)c1` [Example 527, 2-[6-[(4aS,8aR)-6-(3-fluoropropyl)-3,4a,5,7,8,8a-hexahydro-2H-pyrido[4,3-b][1,4]oxazin-4-yl]pyridazin-3-yl]-3,5-dimethyl-phenol], 20 nM; that for `Cc1cc(C(F)(F)F)cc(O)c1-c1ccc(N2CCO[C@@H](CC#N)C2)nn1` (single isomer, unassigned) [Example 328], 219 nM. `CCN1CC[C@@H]2CCN(c3ccc(-c4c(C)cccc4O)nn3)[C@@H]2C1` (single isomer, unassigned) [Example 499]: the IC50 worked out at 3 nM.

Take `CC(=O)N1CC[C@H]2CCN(c3cc(C(F)F)c(-c4ccc(C(F)(F)F)cc4O)nn3)[C@H]2C1` (single isomer, unassigned) [Example 511]: the half-maximal inhibitory concentration (IC50) came out at 571 nM.

Take `Cc1cc(N2CC[C@H]3CCN(C)C[C@H]32)nnc1-c1ccc(Cl)cc1O` (single isomer, unassigned) [Example 468]: the IC50 came to 544 nM. For the molecule `CNCC[C@@H]1CN(c2ccc(-c3c(C)cc(C(F)(F)F)cc3O)nn2)CCO1` (single isomer, unassigned) [Example 331], the concentration for half-maximal inhibition (IC50) turned out to be 1080 nM. On to `Cc1cc(C)c(-c2ccc(N3CC[C@@]4(CN(C)CCO4)C3)nn2)c(O)c1` [Example 446, 3,5-dimethyl-2-[6-[(5R)-9-methyl-6-oxa-2,9-diazaspiro[4.5]decan-2-yl]pyridazin-3-yl]phenol], for which the IC50 was 815 nM. As for `CC(=O)N1CC[C@H]2OCCN(c3cc(C(F)F)c(-c4ccc(Cl)cc4O)nn3)[C@H]2C1` [Example 442, 1-[(4aS,8aR)-4-[6-(4-chloro-2-hydroxy-phenyl)-5-(difluoromethyl)pyridazin-3-yl]-3,4a,5,7,8,8a-hexahydro-2H-pyrido[4,3-b][1,4]oxazin-6-yl]ethanone], the IC50 is 195 nM.

A further assay has as its system NF-kB pathway (TNF-α secretion by THP-1 cells). The assay is described as follows: TNF-α secretion assay in LPS-stimulated THP-1 cells, Lumit immunoassay. The class given is cell-based, human. To be noted: Homo sapiens, THP-1, 3 h, monocytic THP-1 cells, LPS 10 ng/mL, relative IC50, 10 concentrations, geometric mean. As to the method: Monocytic THP-1 cells were maintained in RPMI 1640 media (Gibco 21875)+10% FBS, (Gibco 10500)+1% penicillin/streptomycin (Gibco 15140-122). Cells were then plated at 40,000 cells per well in 384-well cell culture plates (Corning 3542) and maintained with RPMI1640 (Gibco 11835)+5% FBS, (Gibco 10500). Experimental compounds were prepared and added as described above. TNF-α secretion was triggered by the addition of 10 ng/mL LPS (invivoGen, tlrl-3pelps) and cells were incubated for 3 hours. TNF-α levels were monitored directly in the cells plate using an Lumit assay (Lumit TNFa-Human Immunoassay—Promega W6051) according to manufacturers' instructions.
Data were expressed as percentage of inhibition (I %) as compared to a maximum signal control containing no small molecule (I %=0%) according to the formula: 1%=(1−((Sample−Min))/((Max−Min)))×100, where: • Sample: Signal obtained in the presence of each compound tested, • Max: Maximum signal in the absence of compound added, • Min: Minimum or background signal obtained in the absence of activation signal.
Relative IC50 (IC50 rel) were obtained from a dose response curve with 10 concentrations. Final IC50 rels are expressed as the geometric mean.
Relative IC50 values were estimated with Biost@t-SPEED v2.4 internal software based on SAS system using the 4-parameter logistic model according to Ratkovsky and Reedy (D. A. Ratkovsky, T. J. Reedy, Choosing near-linear parameters in the four parameters logistic model radioligands and related assays. Biometrics, 42 (1986), 575-582): Y=A+C/((1+exp(−B*(log(X)−M)))), where: • A: Lower asymptote (BOTTOM), • A+C: Upper asymptote (TOP), • M: the logarithm of the concentration estimated at the inflexion point (the logarithm of the relative IC50), • B: Slope at the inflexion point of the curve.
Consider `NC[C@H]1CCN(c2ccc(-c3c(O)cc(Cl)cc3Cl)nn2)C1` [Example 25, 2-[6-[(3R)-3-(aminomethyl)pyrrolidin-1-yl]pyridazin-3-yl]-3,5-dichloro-phenol], for which the half-inhibitory concentration (IC50) is more than 10000 nM.

Take `Cc1cc(C(F)(F)F)cc(O)c1-c1ccc(N2CCO[C@H]3CCN(C)C[C@H]32)nn1` (single isomer, unassigned) [Example 261]: the IC50 is more than 10000 nM. Regarding `Oc1cc(Cl)cc(Cl)c1-c1ccc(N2CC3(COC3)C2)nn1` [Example 64, 3,5-dichloro-2-[6-(2-oxa-6-azaspiro[3.3]heptan-6-yl)pyridazin-3-yl]phenol], the IC50 is more than 10000 nM.
